The target of data set [1] is T1, Amine oxidase [flavin-containing] B (Homo sapiens, UniProt P27338).
T1 sequence (P27338 whole entry): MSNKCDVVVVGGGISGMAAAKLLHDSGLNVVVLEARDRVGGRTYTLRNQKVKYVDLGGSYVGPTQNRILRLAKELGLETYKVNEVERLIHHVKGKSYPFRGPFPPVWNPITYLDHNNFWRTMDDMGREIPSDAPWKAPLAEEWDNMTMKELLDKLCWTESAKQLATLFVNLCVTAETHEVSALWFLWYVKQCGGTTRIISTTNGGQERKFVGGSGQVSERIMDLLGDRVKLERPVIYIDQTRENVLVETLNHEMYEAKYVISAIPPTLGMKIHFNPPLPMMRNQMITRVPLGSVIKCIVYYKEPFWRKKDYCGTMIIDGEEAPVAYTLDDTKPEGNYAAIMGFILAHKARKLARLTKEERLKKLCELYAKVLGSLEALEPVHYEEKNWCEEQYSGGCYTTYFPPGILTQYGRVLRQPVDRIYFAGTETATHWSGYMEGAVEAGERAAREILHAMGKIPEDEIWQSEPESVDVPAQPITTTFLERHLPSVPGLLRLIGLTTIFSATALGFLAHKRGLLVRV
Put plainly: Inhibition of human MAO-B expressed in baculovirus infected BTI-TN-5B1-4 insect cells using p-tyramine as substrate assessed as hydrogen peroxide production at 100 uM by fluorimetric method. The settings on record: BTI-TN-5B1-4, human.

The target of data set [2] is T2, Amine oxidase [flavin-containing] A (Homo sapiens, UniProt P21397).
T2 sequence (P21397 whole entry): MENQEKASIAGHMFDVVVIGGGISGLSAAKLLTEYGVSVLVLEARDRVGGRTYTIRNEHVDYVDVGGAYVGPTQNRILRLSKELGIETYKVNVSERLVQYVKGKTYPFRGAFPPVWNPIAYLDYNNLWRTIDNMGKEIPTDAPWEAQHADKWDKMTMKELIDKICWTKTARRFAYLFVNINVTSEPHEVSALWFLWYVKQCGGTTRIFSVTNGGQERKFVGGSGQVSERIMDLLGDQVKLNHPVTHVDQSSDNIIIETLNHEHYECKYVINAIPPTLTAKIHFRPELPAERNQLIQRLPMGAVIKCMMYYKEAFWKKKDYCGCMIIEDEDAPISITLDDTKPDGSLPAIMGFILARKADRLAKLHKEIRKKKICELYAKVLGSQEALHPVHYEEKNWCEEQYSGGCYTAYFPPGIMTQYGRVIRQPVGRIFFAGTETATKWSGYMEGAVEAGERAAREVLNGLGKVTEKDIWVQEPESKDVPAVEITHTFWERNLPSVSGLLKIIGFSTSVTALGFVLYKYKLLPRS
Put plainly: Inhibition of human MAO-A expressed in baculovirus infected BTI-TN-5B1-4 insect cells using p-tyramine as substrate assessed as hydrogen peroxide production by fluorimetric method.

A further data set is filed under the species Homo sapiens. The data set can be described thus: Selectivity index, ratio of IC50 for human MAO-B to IC50 for human MAO-A.
Data set [3] deals with T2, Amine oxidase [flavin-containing] A. The data set can be described thus: Inhibition of human MAO-A expressed in baculovirus infected BTI-TN-5B1-4 insect cells using p-tyramine as substrate assessed as hydrogen peroxide production at 100 uM by fluorimetric method. The settings on record: BTI-TN-5B1-4, human.
Data set [4] concerns the target T1, Amine oxidase [flavin-containing] B. Put plainly: Inhibition of human MAO-B expressed in baculovirus infected BTI-TN-5B1-4 insect cells using p-tyramine as substrate assessed as hydrogen peroxide production at 1 mM by fluorimetric method. The settings on record: bti-tn-5b1-4, 1000 µM.
Data set [5] has the same target. The data set can be described thus: biochemical. Format: cell-based, BTI-TN-5B1-4.
Description: Inhibition of human MAO-B expressed in baculovirus infected BTI-TN-5B1-4 insect cells using p-tyramine as substrate assessed as hydrogen peroxide production by fluorimetric method

SMILES strings stand for the structures. Where only a bound is given, the exact number is not on record here.

The values below come from ChEMBL document CHEMBL3217581, “Synthesis and selective inhibition of human monoamine oxidases of a large scaffold of (4,5-substituted-thiazol-2-yl)hydrazones” (Medchemcomm, 2010).

The inhibition is the change of the read-out against control, counted positive when it falls. What is called IC50 is the concentration that inhibits the measured activity by half.

Take `CCCCCC/C(C)=N\Nc1nc(-c2ccc3ccccc3c2)cs1`: the inhibition at 100 µM in data set [1] is 40%. For the same molecule, in data set [2], the IC50 came to 15.8 µM. Further, in the data set listed under Homo sapiens, the Ratio IC50 was greater than 6.25.

Turning to `C/C(=N\Nc1nc(-c2ccc3ccccc3c2)cs1)c1ccc2ccccc2c1`, the inhibition at 100 µM in data set [3] and in data set [1] was 40% in each case.

With `C(=N\Nc1nc(-c2ccc3ccccc3c2)cs1)/c1ccc2c(c1)OCO2`, the inhibition at 100 µM in data set [1] amounted to 40%. The half-maximal inhibitory concentration (IC50) in data set [2] is 5.92 µM. The Ratio IC50 in the data set listed under Homo sapiens is greater than 16.7.

Consider `C/C(=N\Nc1nc(-c2ccc3ccccc3c2)cs1)C1CCCCC1`, for which the inhibition at 100 µM in data set [1] stood at 40%. Also, the 50% inhibitory concentration (IC50) in data set [2] came to 6.95 µM. Besides, in the data set filed under Homo sapiens, the Ratio IC50 was greater than 14.3.

Consider `Cc1sc(N/N=C/c2cccc3ccccc23)nc1-c1ccccc1`, for which the inhibition at 100 µM in data set [3] and in data set [1] was 40% each time.

Regarding `C/C(=N\Nc1nc(-c2ccccc2)c(C)s1)c1ccc2ccccc2c1`, the inhibition at 100 µM in data set [3] and in data set [1] was 40% in each case.

Take `O=C(NCCN1CCOCC1)c1ccc(Cl)cc1` [MOCLOBEMIDE]: the “inhibition (INH)” value in data set [4] is listed as “Not Active”.

With `CCC/C(C)=N\Nc1nc(-c2ccccc2)c(C)s1`, the half-maximal inhibitory concentration (IC50) in data set [2] came to 2.52 µM; in data set [5], 2.31 µM. For the same molecule, in the data set filed under Homo sapiens, the Ratio IC50 is 0.9.

As for `Cc1sc(NN=C2CCCCCC2)nc1-c1ccccc1`, the values for the IC50 in data set [2] and in data set [5] were 2.11 µM and 1.96 µM, respectively. Also, the Ratio IC50 in the data set filed under Homo sapiens was 0.9.

Take `Cc1sc(N/N=C/c2ccc3c(c2)OCO3)nc1-c1ccccc1`: the IC50 stood at 8.63 µM in data set [2] and 6.57 µM in data set [5]. Besides, the Ratio IC50 in the data set listed under Homo sapiens was 0.76.

Take `CC(C)=NNc1nc(-c2ccccc2)c(C)s1`: the values for the IC50 in data set [2] and in data set [5] were 2.55 µM and 5.28 µM, respectively. In addition, the Ratio IC50 in the data set filed under Homo sapiens is 2.08.

Turning to `C(=N\Nc1nc(-c2ccc3ccccc3c2)cs1)/c1ccncc1`, the IC50 in data set [2] came out at 8.67 µM; in data set [5] it was 7.48 µM. For the same molecule, the Ratio IC50 in the data set filed under Homo sapiens worked out at 0.83.

Take `CCCCC/C(C)=N\Nc1nc(-c2ccc3ccccc3c2)cs1`: the IC50 in data set [2] is 2.45 µM; in data set [5] it was 16 µM. Besides, in the data set listed under Homo sapiens, the Ratio IC50 is 6.67.

As for `C(=N\Nc1nc(-c2ccc3ccccc3c2)cs1)/c1c[nH]c2ccccc12`, the half-inhibitory concentration (IC50) in data set [2] was determined as 2.34 µM; in data set [5] it was 5.99 µM. In the data set listed under Homo sapiens, the Ratio IC50 is 2.56.

In the case of `C/C(=N\Nc1nc(-c2ccccc2)c(C)s1)C1CCCCC1`, the values for the half-maximal inhibitory concentration (IC50) in data set [2] and in data set [5] were 7.65 µM and 6.14 µM, respectively. In addition, in the data set filed under Homo sapiens, the Ratio IC50 came to 0.83.

On to `C(=N\Nc1nc(-c2ccc3ccccc3c2)cs1)/c1cccnc1`, for which the concentration for half-maximal inhibition (IC50) in data set [2] was 2.57 µM; in data set [5], 4.76 µM. The Ratio IC50 in the data set filed under Homo sapiens was 1.85.

On to `C/C(=N\Nc1nc(-c2ccc3ccccc3c2)cs1)c1ccco1`, for which the 50% inhibitory concentration (IC50) in data set [2] amounted to 1.77 µM; in data set [5] it was 2.29 µM. For the same molecule, the Ratio IC50 in the data set listed under Homo sapiens worked out at 1.3.

Turning to `Cc1sc(NN=C2CCCCCCC2)nc1-c1ccccc1`, the IC50 is 7.07 µM in data set [2] and 2.31 µM in data set [5]. For the same molecule, in the data set listed under Homo sapiens, the Ratio IC50 came out at 0.32.

Regarding `C/C(=N\Nc1nc(-c2ccccc2)c(C)s1)c1ccccc1`, the half-maximal inhibitory concentration (IC50) in data set [2] was determined as 2.24 µM; in data set [5], 2.23 µM. The Ratio IC50 in the data set filed under Homo sapiens amounted to 1.

For `Cc1sc(N/N=C/c2ccncc2)nc1-c1ccccc1`, the IC50 in data set [2] worked out at 8.29 µM; in data set [5] it was 1.37 µM. Moreover, the Ratio IC50 in the data set filed under Homo sapiens was determined as 0.16.

On to `CCC(CC)=NNc1nc(-c2ccccc2)c(C)s1`, for which the half-inhibitory concentration (IC50) in data set [2] worked out at 1.65 µM; in data set [5], 2.45 µM. For the same molecule, the Ratio IC50 in the data set filed under Homo sapiens was 1.49.

`Cc1sc(NN=C2CCCC2)nc1-c1ccccc1`: the half-inhibitory concentration (IC50) is 0.55 µM in data set [2] and 1.41 µM in data set [5]. Moreover, the Ratio IC50 in the data set listed under Homo sapiens was found to be 2.56.

Turning to `CCC(CC)=NNc1nc(-c2ccc3ccccc3c2)cs1`, the figures for the half-inhibitory concentration (IC50) in data set [2] and in data set [5] were 1.86 µM and 2.32 µM, respectively. Besides, the Ratio IC50 in the data set listed under Homo sapiens was 1.25.

For `C/C(CC(C)C)=N/Nc1nc(-c2ccc3ccccc3c2)cs1`, the IC50 in data set [2] was determined as 2.31 µM; in data set [5], 3.56 µM. In the data set listed under Homo sapiens, the Ratio IC50 came to 1.54.

`CC1CC/C(=N\Nc2nc(-c3ccc4ccccc4c3)cs2)C1` (stereo not given): the 50% inhibitory concentration (IC50) was determined as 1.91 µM in data set [2] and 3.49 µM in data set [5]. Besides, the Ratio IC50 in the data set filed under Homo sapiens was found to be 1.82.

Regarding `CC1CCC/C1=N\Nc1nc(-c2ccc3ccccc3c2)cs1` (stereo not given), the IC50 in data set [2] worked out at 2.6 µM; in data set [5] it was 2.88 µM. The Ratio IC50 in the data set listed under Homo sapiens was found to be 1.11.

Turning to `CC/C(C)=N\Nc1nc(-c2ccc3ccccc3c2)cs1`, the concentration for half-maximal inhibition (IC50) in data set [2] was found to be 1.74 µM; in data set [5], 2.65 µM. Moreover, in the data set filed under Homo sapiens, the Ratio IC50 was 1.52.

In the case of `CC/C(C)=N\Nc1nc(-c2ccccc2)c(C)s1`, the IC50 is 1.55 µM in data set [2] and 1.53 µM in data set [5]. Besides, the Ratio IC50 in the data set filed under Homo sapiens is 1.

Turning to `C/C(=N\Nc1nc(-c2ccc3ccccc3c2)cs1)c1cccs1`, the half-inhibitory concentration (IC50) came out at 3.73 µM in data set [2] and 14.5 µM in data set [5]. The Ratio IC50 in the data set filed under Homo sapiens worked out at 3.85.

As to `C/C(=N\Nc1nc(-c2ccccc2)c(C)s1)c1nccs1`, the concentration for half-maximal inhibition (IC50) in data set [2] was 6.52 µM; in data set [5], 0.28 µM. Also, the Ratio IC50 in the data set filed under Homo sapiens was determined as 0.043.

With `C(=N\Nc1nc(-c2ccc3ccccc3c2)cs1)/c1ccco1`, the IC50 amounted to 2.04 µM in data set [2] and 2.76 µM in data set [5]. In the data set listed under Homo sapiens, the Ratio IC50 worked out at 1.35.

In the case of `C=CCC/C(C)=N\Nc1nc(-c2ccc3ccccc3c2)cs1`, the 50% inhibitory concentration (IC50) in data set [2] is 1.37 µM; in data set [5], 3.94 µM. Further, the Ratio IC50 in the data set filed under Homo sapiens came out at 2.86.

As to `C/C(=N\Nc1nc(-c2ccccc2)c(C)s1)c1cc2ccccc2oc1=O`, the concentration for half-maximal inhibition (IC50) in data set [2] was determined as 9.18 µM; in data set [5], 3.02 µM. In addition, the Ratio IC50 in the data set filed under Homo sapiens came out at 0.33.

On to `Cc1sc(N/N=C/c2cccs2)nc1-c1ccccc1`, for which the half-inhibitory concentration (IC50) in data set [2] was 3.38 µM; in data set [5] it was 3.05 µM. Besides, in the data set filed under Homo sapiens, the Ratio IC50 was 0.9.

Turning to `CC1CCC/C(=N\Nc2nc(-c3ccc4ccccc4c3)cs2)C1` (stereo not given), the half-maximal inhibitory concentration (IC50) was determined as 1.94 µM in data set [2] and 10.8 µM in data set [5]. The Ratio IC50 in the data set filed under Homo sapiens worked out at 5.56.
